The results in this text go back to paper PMC5671655, “LASSBio-897 Reduces Lung Injury Induced by Silica Particles in Mice: Potential Interaction with the A2A Receptor” (Frontiers in Pharmacology, 2017).

Assay [1] has as its target T1, adenosine A2A receptor (Homo sapiens, UniProt P29274).
T1 construct: gene ADORA2A; membrane preparation of HEK293 cells overexpressing the human A2A receptors
In words: radioligand competition with [3H]-adenosine. The format is binding. For orientation: In a radioligand displacement assay an active substance lowers the binding of a labelled ligand.

In assay [2] the target is T2, adenosine A2A receptor (Rattus norvegicus, UniProt P30543).
T2 construct: gene Adora2a; rat striatum membrane preparation
Briefly: radioligand competition with [3H]-CGS21680. The format is binding.

For another assay, the target named is T3, 5-HT transporter (Homo sapiens, UniProt P31645).
T3 construct: gene SLC6A4
In words: Cerep Diversity Profile screen, single concentration […].

As a reminder, the IC50 is the concentration that inhibits the measured activity by half. For orientation: inhibition means the drop in the measured response relative to a control, in per cent. Low readings indicate a response near the control, high ones a response far below the control.

T3 sequence (P31645 whole entry): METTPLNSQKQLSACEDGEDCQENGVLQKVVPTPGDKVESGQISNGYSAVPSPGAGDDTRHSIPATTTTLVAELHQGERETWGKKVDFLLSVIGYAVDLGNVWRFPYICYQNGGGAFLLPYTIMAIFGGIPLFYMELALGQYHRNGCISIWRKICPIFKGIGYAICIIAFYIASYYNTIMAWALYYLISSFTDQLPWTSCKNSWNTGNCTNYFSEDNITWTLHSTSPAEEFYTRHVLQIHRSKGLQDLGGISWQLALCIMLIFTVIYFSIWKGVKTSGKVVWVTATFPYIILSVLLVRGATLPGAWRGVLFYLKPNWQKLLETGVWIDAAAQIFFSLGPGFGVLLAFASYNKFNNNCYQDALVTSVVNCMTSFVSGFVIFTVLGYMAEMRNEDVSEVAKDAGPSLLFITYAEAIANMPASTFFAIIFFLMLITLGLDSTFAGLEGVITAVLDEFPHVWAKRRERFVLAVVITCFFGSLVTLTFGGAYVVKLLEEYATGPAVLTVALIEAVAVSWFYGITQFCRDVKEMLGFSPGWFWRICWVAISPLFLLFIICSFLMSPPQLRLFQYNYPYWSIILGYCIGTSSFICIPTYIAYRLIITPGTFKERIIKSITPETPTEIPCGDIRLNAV
T1 sequence (P29274 whole entry): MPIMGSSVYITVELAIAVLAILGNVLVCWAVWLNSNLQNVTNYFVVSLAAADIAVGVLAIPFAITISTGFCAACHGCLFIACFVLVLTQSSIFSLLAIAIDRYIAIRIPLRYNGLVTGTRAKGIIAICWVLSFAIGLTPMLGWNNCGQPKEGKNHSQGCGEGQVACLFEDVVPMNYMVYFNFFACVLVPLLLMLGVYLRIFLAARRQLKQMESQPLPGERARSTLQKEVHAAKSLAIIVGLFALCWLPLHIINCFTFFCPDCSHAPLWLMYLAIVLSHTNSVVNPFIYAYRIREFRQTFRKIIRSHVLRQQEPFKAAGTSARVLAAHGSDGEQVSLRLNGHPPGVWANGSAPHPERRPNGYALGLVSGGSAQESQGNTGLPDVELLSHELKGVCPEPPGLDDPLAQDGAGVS
T2 sequence (P30543 whole entry): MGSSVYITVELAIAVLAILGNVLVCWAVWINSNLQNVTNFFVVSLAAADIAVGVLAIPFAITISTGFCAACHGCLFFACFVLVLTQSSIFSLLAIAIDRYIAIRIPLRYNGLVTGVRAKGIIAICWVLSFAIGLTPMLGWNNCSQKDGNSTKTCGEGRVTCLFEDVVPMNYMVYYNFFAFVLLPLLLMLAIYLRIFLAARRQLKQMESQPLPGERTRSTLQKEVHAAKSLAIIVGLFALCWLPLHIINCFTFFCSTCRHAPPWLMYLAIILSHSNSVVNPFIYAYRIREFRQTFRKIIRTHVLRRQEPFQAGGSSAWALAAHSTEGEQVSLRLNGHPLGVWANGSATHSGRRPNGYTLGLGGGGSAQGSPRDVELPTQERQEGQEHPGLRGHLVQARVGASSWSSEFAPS

For `O=C(N/N=C/c1ccsc1)c1ccc2c(c1)OCO2` [LASSBio-897], the 50% inhibitory concentration (IC50) at adenosine A2A receptor [1] is 11.4 µM; at adenosine A2A receptor [2] it was 9.3 µM. The inhibition at 10 µM at 5-HT transporter was 56%.
